Source: US20260078105A1, “Novel Aminocarboxymuconate Semialdehyde Decarboxylase Inhibitors” (OrsoBio, Inc., priority 2023, published 2026)

Molecular target: T1, ACMSD (Mus musculus, UniProt Q8R519)
T1 construct: endogenous in cells; host or cells: primary mouse hepatocytes (frozen, commercial)
Experiment: Quinolinic acid (QA) levels in primary mouse hepatocytes by LC-MS/MS, as indicator of ACMSD inhibition
Format: cell-based
Conditions: 3 μM compound, six hours, 500 μM tryptophan, ratio of QA formed with compound versus wells with no compound (DMSO)
Method: Frozen primary mouse hepatocytes were thawed as per manufacturer's instructions and seeded at a density of 300,000 cells/well of a 6-well plate. After resting for a few hours, the cells were incubated with 3 μM of compound resuspended in DMSO in serum-free William's E media supplemented with 500 μM of tryptophan for six hours. After six hours, the cells were washed with phosphate buffer saline (PBS) and harvested in pre-cooled crashing solution (acetonitrile:methanol:water (40%:40%:20% w/w)) containing internal standard (telmisartan and/or verapamil). Ammonium bicarbonate (15%; 30 μL) was added to the lysates, incubated on dry ice for 10 min, centrifuged for 10 min at 14000 rpm and QA levels were quantified using optimized LC-MS/MS methods using an Atlantis, T3 3 μm, 150×4.6 mm column, and 0.1% formic acid in water and 0.2% formic acid in methanol as mobile phase A and B, respectively. The results are shown in Table 1 as a ratio of the amount of QA formed with compound versus the amount of QA in wells with no compound (DMSO). ACMSD is at the junction of the metabolic pathway of tryptophan. Increased QA levels or decreased PA levels would both be indicative of inhibition of ACMSD. When mouse hepatocytes are treated with the compounds of the invention, increased QA levels are observed and are therefore inhibitors of ACMSD.

T1 sequence (Q8R519 whole entry): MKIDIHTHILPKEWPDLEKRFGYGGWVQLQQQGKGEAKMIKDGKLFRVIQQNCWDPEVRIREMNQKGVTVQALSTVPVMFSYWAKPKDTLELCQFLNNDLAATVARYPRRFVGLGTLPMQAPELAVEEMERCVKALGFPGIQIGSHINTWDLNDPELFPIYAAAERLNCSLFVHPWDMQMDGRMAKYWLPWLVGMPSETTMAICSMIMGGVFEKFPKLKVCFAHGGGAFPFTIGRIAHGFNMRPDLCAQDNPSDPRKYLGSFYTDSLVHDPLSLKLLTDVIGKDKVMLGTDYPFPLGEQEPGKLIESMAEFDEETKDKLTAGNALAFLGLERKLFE

| Quinolinic acid ratio (Range) | SMILES |
| --- | --- |
| ** (<4 to 6) | N#Cc1c(SCc2nnn[nH]2)[nH]c(=O)c(Cl)c1-c1cccc(C(=O)Nc2ccccc2)c1 [Compound 123, 3-(6-(((1H-tetrazol-5-yl)methyl)thio)-3-chloro-5-cyano-2-oxo-1,2-dihydropyridin-4-yl)-N-phenylbenzamide] |
| ** (<4 to 6) | N#Cc1c(SCc2nnn[nH]2)[nH]c(=O)c(C(=O)Nc2ccccc2)c1-c1ccc(Cl)cc1 [Compound 124, 6-(((1H-tetrazol-5-yl)methyl)thio)-4-(4-chlorophenyl)-5-cyano-2-oxo-N-phenyl-1,2-dihydropyridine-3-carboxamide] |
| ** (<4 to 6) | N#Cc1c(SCc2nnn[nH]2)[nH]c(=O)c(C(=O)N2CCCC2)c1-c1ccc(Cl)cc1 [Compound 125, 2-(((1H-tetrazol-5-yl)methyl)thio)-4-(4-chlorophenyl)-6-oxo-5-(pyrrolidine-1-carbonyl)-1,6-dihydropyridine-3-carbonitrile] |
| ** (<4 to 6) | N#Cc1c(SCc2nnn[nH]2)[nH]c(=O)c(C(=O)N2CCCC2)c1-c1cccc(-c2ccccc2)c1 [Compound 126, 2-(((1H-tetrazol-5-yl)methyl)thio)-4-([1,1′-biphenyl]-3-yl)-6-oxo-5-(pyrrolidine-1-carbonyl)-1,6-dihydropyridine-3-carbonitrile] |
| * (2 to 4) | CNC(=O)c1c(-c2ccc(Cl)cc2)c(C#N)c(SCc2nnn[nH]2)[nH]c1=O [Compound 127, 6-(((1H-tetrazol-5-yl)methyl)thio)-4-(4-chlorophenyl)-5-cyano-N-methyl-2-oxo-1,2-dihydropyridine-3-carboxamide] |
| * (2 to 4) | O=C(O)c1cccc(CSc2nc(-c3ccccc3)nc(=O)[nH]2)c1 [Compound 128, 3-(((6-oxo-4-phenyl-1,6-dihydro-1,3,5-triazin-2-yl)thio)methyl)benzoic acid] |
| * (2 to 4) | N#Cc1c(-c2ccccc2)nc(=O)[nH]c1SCC(=O)O [Compound 131, 2-((5-cyano-2-oxo-6-phenyl-2,3-dihydropyrimidin-4-yl)thio)acetic acid] |
| — (<2) | CC(C)Oc1nc(SCc2nnn[nH]2)[nH]c(=O)n1 [Compound 133, 6-(((1H-tetrazol-5-yl)methyl)thio)-4-isopropoxy-1,3,5-triazin-2(1H)-one] |
